Test results from patent US6340758B1, “Conformationally semi-constrained quinoxaline 2,3-diones as neuroprotective agents” (Warner-Lambert Company, priority 1997, dated 2002).

With `Cc1c([N+](=O)[O-])cc2[nH]c(=O)c(=O)[nH]c2c1-c1nnc(N)o1` [Example 1, 5-(5-Amino-[1,3,4]oxadiazol-2-yl)-6-methyl-7-nitro-1,4-dihydro-quinoxaline-2,3-dione] the melting point was 205 to 206 °C.
